Here are results for 20 compounds from patent US10787462B2, “Heterocyclic compound” (TAKEDA PHARMACEUTICAL COMPANY LIMITED, priority 2015, dated 2020).

Molecules are shown by their SMILES. Structures can show the parent of a compound that is named as a salt.

In one assay the target is T1, human RIPK1 (1-375) (Homo sapiens, UniProt Q13546).
T1 construct: human RIPK1 (1-375) gene; GST; made in house; host or cells: Sf-9 insect cells
T1 sequence (Q13546 1-375): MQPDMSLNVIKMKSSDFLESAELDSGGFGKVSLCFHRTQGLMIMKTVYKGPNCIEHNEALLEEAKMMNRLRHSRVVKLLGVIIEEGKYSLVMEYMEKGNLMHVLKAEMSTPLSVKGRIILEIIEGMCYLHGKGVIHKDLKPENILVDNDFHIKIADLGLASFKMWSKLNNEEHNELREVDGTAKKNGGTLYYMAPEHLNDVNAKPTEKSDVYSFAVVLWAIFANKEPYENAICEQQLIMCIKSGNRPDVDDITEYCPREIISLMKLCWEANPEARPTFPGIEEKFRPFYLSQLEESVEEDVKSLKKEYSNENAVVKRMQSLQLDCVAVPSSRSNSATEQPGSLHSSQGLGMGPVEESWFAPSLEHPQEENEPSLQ
The assay can be described thus: Human RIPK1 enzyme inhibitory effect (ADP-Glo Kinase Assay). Format: biochemical. The following applies: 10 μM test compound; well without enzyme = 100% inhibition; 10 µM. An outline of the steps:
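Human RIPK1 (1-375), GST-purified from Sf-9 cells, preincubated 20 min at room temperature with compound in 25 mM HEPES pH 7.5, 10 mM MgCl2, 0.01% Tween-20, 2 mM DTT. Reaction started with 0.6 mM ATP solution (stock), run 120 min at room temperature. ADP measured by ADP-Glo luminescence.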
Regarding `CN1C(=O)C(N2CCc3c(nn(Cc4ccccc4)c3Cl)C2=O)CCc2cnccc21` (centres unmarked) [Example 100, 3-(2-benzyl-3-chloro-7-oxo-2,4,5,7-tetrahydro-6H-pyrazolo[3,4-c]pyridin-6-yl)-1-methyl-1,3,4,5-tetrahydro-2H-pyrido[4,3-b]azepin-2-one], the “human RIPK1 enzyme inhibitory effect at 10 μM (% inhibition)” value is listed as 91%.

Consider `CN1C(=O)C(N2CCc3c(nn(Cc4ccccc4F)c3Cl)C2=O)CCc2cnccc21` (centres unmarked) [Example 96, 3-(3-chloro-2-(2-fluorobenzyl)-7-oxo-2,4,5,7-tetrahydro-6H-pyrazolo[3,4-c]pyridin-6-yl)-1-methyl-1,3,4,5-tetrahydro-2H-pyrido[4,3-b]azepin-2-one], for which the “human RIPK1 enzyme inhibitory effect at 10 μM (% inhibition)” value turned out to be 96%.

For the compound `CN1C(=O)C(N2CCc3c(nn(Cc4ccccc4)c3Cl)C2=O)CCc2cn(C)nc21` (centres unmarked) [Example 114, 6-(2-benzyl-3-chloro-7-oxo-2,4,5,7-tetrahydro-6H-pyrazolo[3,4-c]pyridin-6-yl)-2,8-dimethyl-2,5,6,8-tetrahydropyrazolo[3,4-b]azepin-7(4H)-one], the “human RIPK1 enzyme inhibitory effect at 10 μM (% inhibition)” value came out at 101%.

For `CN1C(=O)C(N2CCc3c(nn(Cc4ccccc4F)c3Cl)C2=O)CCc2ccncc21` (centres unmarked) [Example 104, 3-(3-chloro-2-(2-fluorobenzyl)-7-oxo-2,4,5,7-tetrahydro-6H-pyrazolo[3,4-c]pyridin-6-yl)-1-methyl-1,3,4,5-tetrahydro-2H-pyrido[3,4-b]azepin-2-one], the “human RIPK1 enzyme inhibitory effect at 10 μM (% inhibition)” value is recorded as 95%.

Still in this assay, the particulars now being: read-out: human RIPK1 enzyme inhibitory effect at 10 μM (% inhibition).
As a reminder, the inhibition is the drop in the measured response relative to a control, in per cent. `CN1C(=O)[C@@H](N2CCc3c(nn(Cc4ccccc4)c3C(N)=O)C2=O)COc2ccccc21` [Example 50, 2-benzyl-6-((3S)-5-methyl-4-oxo-2,3,4,5-tetrahydro-1,5-benzoxazepin-3-yl)-7-oxo-4,5,6,7-tetrahydro-2H-pyrazolo[3,4-c]pyridine-3-carboxamide]: the inhibition at 10 µM was 99%.

Still in this assay, the particulars now being: read-out: human RIPK1 enzyme inhibitory effect at 10 μM (% inhibition), 10 μM test compound; well without enzyme = 100% inhibition.
As to `CN1C(=O)[C@@H](N2CCc3c(nn(Cc4ccccc4)c3-c3cnn(C)c3)C2=O)COc2ccccc21` [Example 169, (3S)-3-(2-benzyl-3-(1-methyl-1H-pyrazol-4-yl)-7-oxo-2,4,5,7-tetrahydro-6H-pyrazolo[3,4-c]pyridin-6-yl)-5-methyl-2,3-dihydro-1,5-benzoxazepin-4(5H)-one], the inhibition at 10 µM is 80%.

Regarding `CN1C(=O)[C@@H](N2CCc3c(nn(Cc4ccccc4)c3Cl)C2=O)COc2cc(C(=O)NC3COC3)ccc21` [Example 118, (3S)-3-(2-benzyl-3-chloro-7-oxo-2,4,5,7-tetrahydro-6H-pyrazolo[3,4-c]pyridin-6-yl)-5-methyl-N-(oxetan-3-yl)-4-oxo-2,3,4,5-tetrahydro-1,5-benzoxazepine-8-carboxamide], the inhibition at 10 µM was found to be 98%.

Take `Cc1c2c(nn1Cc1ccccc1)C(=O)N([C@H]1COc3cc(C(N)=O)ccc3N(C)C1=O)CC2` [Example 88, (3S)-3-(2-benzyl-3-methyl-7-oxo-2,4,5,7-tetrahydro-6H-pyrazolo[3,4-c]pyridin-6-yl)-5-methyl-4-oxo-2,3,4,5-tetrahydro-1,5-benzoxazepine-8-carboxamide]: the inhibition at 10 µM was 101%.

As to `CN1C(=O)[C@@H](N2CCc3[nH]c(Cc4ccccc4)nc3C2=O)COc2ccccc21` [Example 55, (3S)-3-(2-benzyl-4-oxo-1,4,6,7-tetrahydro-5H-imidazo[4,5-c]pyridin-5-yl)-5-methyl-2,3-dihydro-1,5-benzoxazepin-4(5H)-one trifluoroacetate], the inhibition at 10 µM turned out to be 96%.

As to `COc1ccc(Cn2cc3c(n2)C(=O)N([C@H]2COc4ccccc4N(C)C2=O)CC3)cc1` [Example 161, (3S)-3-(2-(4-methoxybenzyl)-7-oxo-2,4,5,7-tetrahydro-6H-pyrazolo[3,4-c]pyridin-6-yl)-5-methyl-2,3-dihydro-1,5-benzoxazepin-4(5H)-one], the inhibition at 10 µM was 99%.

As to `CC1Cc2cn(Cc3ccccc3)nc2C(=O)N1[C@H]1COc2ccccc2N(C)C1=O` (stereo partly drawn) [Example 68, (3S)-3-(2-benzyl-5-methyl-7-oxo-2,4,5,7-tetrahydro-6H-pyrazolo[3,4-c]pyridin-6-yl)-5-methyl-2,3-dihydro-1,5-benzoxazepin-4(5H)-one], the inhibition at 10 µM stood at 100%.

Regarding `CN1C(=O)[C@@H](N2CCc3c(nn(Cc4ccccc4)c3Cl)C2=O)COc2cc(C(N)=O)ccc21` [Example 64, (3S)-3-(2-benzyl-3-chloro-7-oxo-2,4,5,7-tetrahydro-6H-pyrazolo[3,4-c]pyridin-6-yl)-5-methyl-4-oxo-2,3,4,5-tetrahydro-1,5-benzoxazepine-8-carboxamide], the inhibition at 10 µM amounted to 101%.

Regarding `CN1C(=O)[C@@H](N2CCc3cn(Cc4c(F)cccc4F)nc3C2=O)COc2cc(C#N)ccc21` [Example 45, (3S)-3-(2-(2,6-difluorobenzyl)-7-oxo-2,4,5,7-tetrahydro-6H-pyrazolo[3,4-c]pyridin-6-yl)-5-methyl-4-oxo-2,3,4,5-tetrahydro-1,5-benzoxazepine-8-carbonitrile], the inhibition at 10 µM worked out at 101%.

In the case of `COc1c2c(nn1Cc1ccccc1)C(=O)N([C@H]1COc3ccccc3N(C)C1=O)CC2` [Example 48, (3S)-3-(2-benzyl-3-methoxy-7-oxo-2,4,5,7-tetrahydro-6H-pyrazolo[3,4-c]pyridin-6-yl)-5-methyl-2,3-dihydro-1,5-benzoxazepin-4(5H)-one], the inhibition at 10 µM worked out at 98%.

For the compound `CN1C(=O)[C@@H](N2CCc3cn(CC4CC(F)(F)C4)nc3C2=O)COc2ccccc21` [Example 33, (3S)-3-(2-((3,3-difluorocyclobutyl)methyl)-7-oxo-2,4,5,7-tetrahydro-6H-pyrazolo[3,4-c]pyridin-6-yl)-5-methyl-2,3-dihydro-1,5-benzoxazepin-4(5H)-one], the inhibition at 10 µM came to 95%.

`CNC(=O)c1ccc2c(c1)OC[C@H](N1CCc3c(nn(Cc4ccccc4F)c3C)C1=O)C(=O)N2C` [Example 115, (3S)-3-(2-(2-fluorobenzyl)-3-methyl-7-oxo-2,4,5,7-tetrahydro-6H-pyrazolo[3,4-c]pyridin-6-yl)-N,5-dimethyl-4-oxo-2,3,4,5-tetrahydro-1,5-benzoxazepine-8-carboxamide]: the inhibition at 10 µM is 101%.

With `CN1C(=O)[C@@H](N2CCc3cn(Cc4c(Cl)cccc4C#N)nc3C2=O)COc2ccccc21` [Example 165, 3-chloro-2-((6-((3S)-5-methyl-4-oxo-2,3,4,5-tetrahydro-1,5-benzoxazepin-3-yl)-7-oxo-4,5,6,7-tetrahydro-2H-pyrazolo[3,4-c]pyridin-2-yl)methyl)benzonitrile], the inhibition at 10 µM came to 99%.

Regarding `CN1C(=O)[C@@H](N2CCc3cn(Cc4ccccc4Cl)nc3C2=O)COc2ccccc21` [Example 25, (3S)-3-(2-(2-ohlorobenzy)-7-oxo-2,4,5,7-tetrahydro-6H-pyrazolo[3,4-c]pyridin-6-yl)-5-methyl-2,3-dihydro-1,5-benzoxazepin-4(5H)-one], the inhibition at 10 µM was determined as 100%.

Consider `O=C1Nc2ccccc2CCC1N1Cc2sc(Cc3ccccc3)nc2C1=O` (centres unmarked) [Example 15, 3-(2-benzyl-4-oxo-4,6-dihydro-5H-pyrrolo[3,4-d][1,3]thiazol-5-yl)-1,3,4,5-tetrahydro-2H-1-benzazepin-2-one], for which the inhibition at 10 µM stood at 91%.

With `CN1C(=O)[C@@H](N2CCc3cn(Cc4ccccn4)nc3C2=O)COc2ccccc21` [Example 32, (3S)-5-methyl-3-(7-oxo-2-(pyridin-2-ylmethyl)-2,4,5,7-tetrahydro-6H-pyrazolo[3,4-c]pyridin-6-yl)-2,3-dihydro-1,5-benzoxazepin-4(5H)-one], the inhibition at 10 µM is 97%.
